# Measured values taken from patent US7402548B2, “Benzoxazole compounds, process for producing the same and herbicides” (Kyoyu Agri Co., Ltd., priority 2000, dated 2008).
# Tests used:
# barnyard grass [1] = assay: Herbicidal test for paddy field; assay type: in vivo, Eschinochloa crusgalli; settings: 500 g/ha, dropwise addition to paddy water at 1.5 leaf stage of barnyard grass; glass house 25° C., 3 weeks; rank 0-5 vs non-treated district
# Procedure: (§1) Wagner pots, each having an area of 1/5000 are, were packed with Ube soil (alluvial soil) and planted with seeds or tubers of young rice plant, barnyard grass, bulrush, Cyperus serotinus Rottb., arrowhead and monochoria. Then, the pots were filled with water to a depth of 3 cm.
# (§2) Each wettable powder of the desired Compounds (I) shown in Tables 1 to 21, 24, 25, 28 and 29 prepared in accordance with Example 2 was diluted with water containing a surfactant (0.05%) and subjected to dropwise addition treatment by using pipet so that an effective concentration of the compound (I) in each herbicide became 500 g/ha at 1.5 leaf stage of barnyard grass.
# (§3) These plants were controlled in a glass house at an average temperature of 25° C. for 3 weeks, and then herbicidal effects thereof were investigated.
# (§4) The herbicidal effects are evaluated according to the following 6 ranks as compared with non-treated district. (0: normal development, 1: Less damaged, 2: Slightly damaged, 3: Moderately damaged, 4: Severely damaged, 5: All killed). Incidentally, “-” in the column means not investigated.
# monochoria = assay: Herbicidal test for paddy field; assay type: in vivo, Monochoria vaginalis; settings: 500 g/ha, dropwise addition to paddy water at 1.5 leaf stage of barnyard grass; glass house 25° C., 3 weeks; rank 0-5 vs non-treated district
# Procedure: as §1, §2, §3, §4
# corn [2] = assay: Soil treatment test for upland field; assay type: in vivo; parameters: key: 0 = normal development, 5 = all killed; settings: 500 g/ha, 3 weeks, glass house 25° C.
# How it was run: (§5)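 Surface spray of freshly sown alluvial soil, 500 g/ha compound, water containing 0.05% surfactant. Visual 0–5 damage rating versus untreated after 3 weeks, glasshouse at 25° C average.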
# soybean [3] = assay: Soil treatment test for upland field; assay type: in vivo; parameters: key: 0 = normal development, 5 = all killed; settings: 500 g/ha, 3 weeks, glass house 25° C.
# How it was run: as §5
# wheat [4] = assay: Soil treatment test for upland field; assay type: in vivo; parameters: key: 0 = normal development, 5 = all killed; settings: 500 g/ha, 3 weeks, glass house 25° C.
# How it was run: as §5
# Large crabgrass [5] = assay: Soil treatment test for upland field; assay type: in vivo, Digitaria adscendens; parameters: key: 0 = normal development, 5 = all killed; settings: 500 g/ha, 3 weeks, glass house 25° C.
# How it was run: as §5
# barnyard grass [6] = assay: Soil treatment test for upland field; assay type: in vivo, Eschinochloa crusgalli; parameters: key: 0 = normal development, 5 = all killed; settings: 500 g/ha, 3 weeks, glass house 25° C.
# How it was run: as §5
# green foxtail [7] = assay: Soil treatment test for upland field; assay type: in vivo, Setaria viridis; parameters: key: 0 = normal development, 5 = all killed; settings: 500 g/ha, 3 weeks, glass house 25° C.
# How it was run: as §5
# annual bluegrass [8] = assay: Soil treatment test for upland field; assay type: in vivo, Poa annua; parameters: key: 0 = normal development, 5 = all killed; settings: 500 g/ha, 3 weeks, glass house 25° C.
# How it was run: as §5
# common lambsquarters [9] = assay: Soil treatment test for upland field; assay type: in vivo, Chenopodium album; parameters: key: 0 = normal development, 5 = all killed; settings: 500 g/ha, 3 weeks, glass house 25° C.
# How it was run: as §5
# livid amaranth [10] = assay: Soil treatment test for upland field; assay type: in vivo, Amaranthus lividus; parameters: key: 0 = normal development, 5 = all killed; settings: 500 g/ha, 3 weeks, glass house 25° C.
# How it was run: as §5
# corn [11] = assay: Foliar spread test for upland field; assay type: in vivo; parameters: key: 0 = normal development, 5 = all killed (6 ranks vs. untreated); settings: foliar spray, 500 ppm, 3 weeks, glass house 25° C.
# How it was run: (§6)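 Scores on a 0–5 scale (0 normal development, 5 all killed), relative to untreated controls, were taken 3 weeks post-treatment in a 25 °C glass house. Treatment was a uniform foliar spray at 500 ppm (0.5% surfactant) onto roughly 2-week-old soil-grown plants.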
# wheat [12] = assay: Foliar spread test for upland field; assay type: in vivo; parameters: key: 0 = normal development, 5 = all killed (6 ranks vs. untreated); settings: foliar spray, 500 ppm, 3 weeks, glass house 25° C.
# How it was run: as §6
# Large crabgrass [13] = assay: Foliar spread test for upland field; assay type: in vivo, Digitaria adscendens; parameters: key: 0 = normal development, 5 = all killed (6 ranks vs. untreated); settings: foliar spray, 500 ppm, 3 weeks, glass house 25° C.
# How it was run: as §6
# green foxtail [14] = assay: Foliar spread test for upland field; assay type: in vivo, Setaria viridis; parameters: key: 0 = normal development, 5 = all killed (6 ranks vs. untreated); settings: foliar spray, 500 ppm, 3 weeks, glass house 25° C.
# How it was run: as §6
# common lambsquarters [15] = assay: Foliar spread test for upland field; assay type: in vivo, Chenopodium album; parameters: key: 0 = normal development, 5 = all killed (6 ranks vs. untreated); settings: foliar spray, 500 ppm, 3 weeks, glass house 25° C.
# How it was run: as §6
# livid amaranth [16] = assay: Foliar spread test for upland field; assay type: in vivo, Amaranthus lividus; parameters: key: 0 = normal development, 5 = all killed (6 ranks vs. untreated); settings: foliar spray, 500 ppm, 3 weeks, glass house 25° C.
# How it was run: as §6
# bulrush = assay: Herbicidal test for paddy field; assay type: in vivo, Scrips juncoides; settings: 500 g/ha, dropwise addition to paddy water at 1.5 leaf stage of barnyard grass; glass house 25° C., 3 weeks; rank 0-5 vs non-treated district
# Procedure: as §1, §2, §3, §4
# Cyperus serotinus Rottb. = assay: Herbicidal test for paddy field; assay type: in vivo; settings: 500 g/ha, dropwise addition to paddy water at 1.5 leaf stage of barnyard grass; glass house 25° C., 3 weeks; rank 0-5 vs non-treated district
# Procedure: as §1, §2, §3, §4
# solgum [17] = assay: Soil treatment test for upland field; assay type: in vivo; parameters: key: 0 = normal development, 5 = all killed; settings: 500 g/ha, 3 weeks, glass house 25° C.
# How it was run: as §5
# sugar beat [18] = assay: Soil treatment test for upland field; assay type: in vivo; parameters: key: 0 = normal development, 5 = all killed; settings: 500 g/ha, 3 weeks, glass house 25° C.
# How it was run: as §5
# blackgrass [19] = assay: Soil treatment test for upland field; assay type: in vivo, Alopecurus aegualis; parameters: key: 0 = normal development, 5 = all killed; settings: 500 g/ha, 3 weeks, glass house 25° C.
# How it was run: as §5
# velvetleaf [20] = assay: Soil treatment test for upland field; assay type: in vivo, Abutilon theophrasti; parameters: key: 0 = normal development, 5 = all killed; settings: 500 g/ha, 3 weeks, glass house 25° C.
# How it was run: as §5
# morning glory [21] = assay: Soil treatment test for upland field; assay type: in vivo, Ipomoea spps.; parameters: key: 0 = normal development, 5 = all killed; settings: 500 g/ha, 3 weeks, glass house 25° C.
# How it was run: as §5
# cotton = assay: Foliar spread test for upland field; assay type: in vivo; parameters: key: 0 = normal development, 5 = all killed (6 ranks vs. untreated); settings: foliar spray, 500 ppm, 3 weeks, glass house 25° C.
# How it was run: as §6
# solgum [22] = assay: Foliar spread test for upland field; assay type: in vivo; parameters: key: 0 = normal development, 5 = all killed (6 ranks vs. untreated); settings: foliar spray, 500 ppm, 3 weeks, glass house 25° C.
# How it was run: as §6
# soybean [23] = assay: Foliar spread test for upland field; assay type: in vivo; parameters: key: 0 = normal development, 5 = all killed (6 ranks vs. untreated); settings: foliar spray, 500 ppm, 3 weeks, glass house 25° C.
# How it was run: as §6
# sugar beat [24] = assay: Foliar spread test for upland field; assay type: in vivo; parameters: key: 0 = normal development, 5 = all killed (6 ranks vs. untreated); settings: foliar spray, 500 ppm, 3 weeks, glass house 25° C.
# How it was run: as §6
# barnyardgrjass = assay: Foliar spread test for upland field; assay type: in vivo, Eschinochloa crusgalli; parameters: key: 0 = normal development, 5 = all killed (6 ranks vs. untreated); settings: foliar spray, 500 ppm, 3 weeks, glass house 25° C.
# How it was run: as §6
# blackgrass [25] = assay: Foliar spread test for upland field; assay type: in vivo, Alopecurus aegualis; parameters: key: 0 = normal development, 5 = all killed (6 ranks vs. untreated); settings: foliar spray, 500 ppm, 3 weeks, glass house 25° C.
# How it was run: as §6
# annual bluegrass [26] = assay: Foliar spread test for upland field; assay type: in vivo, Poa annua; parameters: key: 0 = normal development, 5 = all killed (6 ranks vs. untreated); settings: foliar spray, 500 ppm, 3 weeks, glass house 25° C.
# How it was run: as §6
# velvetleaf [27] = assay: Foliar spread test for upland field; assay type: in vivo, Abutilon theophrasti; parameters: key: 0 = normal development, 5 = all killed (6 ranks vs. untreated); settings: foliar spray, 500 ppm, 3 weeks, glass house 25° C.
# How it was run: as §6
# morning glory [28] = assay: Foliar spread test for upland field; assay type: in vivo, Ipomoea spps.; parameters: key: 0 = normal development, 5 = all killed (6 ranks vs. untreated); settings: foliar spray, 500 ppm, 3 weeks, glass house 25° C.
# How it was run: as §6
SMILES,Effects Barnyardgrass (barnyard grass [1]),Effects Monochoria (monochoria),Effects Corn (corn [2]),Effects Soybean (soybean [3]),Effects Wheat (wheat [4]),Effects Large crabgrass (Large crabgrass [5]),Effects Barnyardgrass (barnyard grass [6]),Effects Green foxtail (green foxtail [7]),Effects Annual bluegrass (annual bluegrass [8]),Effects Common lambsquarters (common lambsquarters [9]),Effects Livid amaranth (livid amaranth [10]),Effects Corn (corn [11]),Effects Wheat (wheat [12]),Effects Large crabgrass (Large crabgrass [13]),Effects Green foxtail (green foxtail [14]),Effects Common lambsquarters (common lambsquarters [15]),Effects Livid amaranth (livid amaranth [16]),further results
CCC(Oc1cc(C(F)(F)F)no1)c1nc2cc(C#N)c(F)cc2o1 (centres unmarked) [Compound 1-e-28],5,5,0,1,0,5,4,5,5,5,5,2,2,4,4,5,5,
CCC(Sc1cc(C(F)(F)F)nn1C)c1nc2cc(Cl)ccc2o1 (centres unmarked) [Compound 1-e-12],,5,0,0,0,5,3,2,4,3,4,,,,,,,
CCC(Oc1cc(C(F)(F)F)ncn1)c1nc2cc(Cl)ccc2o1 (centres unmarked) [Compound 1-e-66],2,5,,,,,,,,,,,,,,,,
CCC(Oc1cc(C(F)(F)F)nn1C)c1nc2cc(C#N)c(F)cc2o1 (centres unmarked) [Compound 1-e-10],5,4,1,2,0,5,4,5,5,5,5,,1,5,5,5,5,
CCC(=Cc1cccc(C(F)(F)F)c1)c1nc2cc(C(F)(F)F)ccc2o1 [I-c-86],5,,1,0,0,5,5,5,5,5,5,3,2,4,4,5,5,Effects Bulrush (bulrush): 4; Effects Cyperus serotinus Rottb. (Cyperus serotinus Rottb.): 3; Effects Solgum (solgum [17]): 1; Effects Sugar beat (sugar beat [18]): 5; Effects Blackgrass (blackgrass [19]): 5; Effects Velvetleaf (velvetleaf [20]): 5; Effects Morning glory (morning glory [21]): 5; Effects Sotton (cotton): 4; Effects Solgum (solgum [22]): 2; Effects Soybean (soybean [23]): 5; Effects Sugar beat (sugar beat [24]): 4; Effects Barnyardgrass (barnyardgrjass): 2; Effects Blackgrass (blackgrass [25]): 3; Effects Annual bluegrass (annual bluegrass [26]): 4; Effects Velvetleaf (velvetleaf [27]): 3; Effects Morning glory (morning glory [28]): 5
